Test results: PMC9823097, “Dysregulation of PRMT5 in chronic lymphocytic leukemia promotes progression with high risk of Richter’s transformation” (Nature Communications, 2023)

How the values were obtained:
[1] = system: Mec-1 cells; assay: Cell growth curves over 12 days, Mec-1; type: cell-based; details: for anti-proliferative potency compared to PRT382: Mec-1
Procedure: (§1) Live cells/mL were counted on days 3, 6, 10, and 12. […] The split factor was calculated at indicated time points by dividing the counted cells/mL by 3E5. Cell growth was extrapolated over time by multiplying the subsequent cell count by the previous split factor. Cell growth is plotted as fold change relative to DMSO-treated cells.

[2] = system: HG3 cells; assay: Cell growth curves over 12 days, HG3; type: cell-based; details: for anti-proliferative potency compared to PRT382: HG3
Procedure: as §1

## Nc1ncnc2c1ccn2C1OC(C(O)c2ccc(Cl)c(F)c2)C(O)C1O (stereo not drawn) [PF-06855800]
[1]; Mec-1, 1 nM, day 0
  Rep 1 Live Cells [Fold Change]: 1 Fold Change
  Rep 2 Live Cells [Fold Change]: 1 Fold Change
[1]; Mec-1, 1 nM, day 3
  Rep 1 Live Cells [Fold Change]: 5.6 Fold Change
  Rep 2 Live Cells [Fold Change]: 6.6 Fold Change
[1]; Mec-1, 1 nM, day 6
  Rep 1 Live Cells [Fold Change]: 24.6 Fold Change
  Rep 2 Live Cells [Fold Change]: 45.98 Fold Change
[1]; Mec-1, 1 nM, day 10
  Rep 1 Live Cells [Fold Change]: 216 Fold Change
  Rep 2 Live Cells [Fold Change]: 282.777 Fold Change
[1]; Mec-1, 1 nM, day 12
  Rep 1 Live Cells [Fold Change]: 1400 Fold Change
  Rep 2 Live Cells [Fold Change]: 1404.46 Fold Change
[1]; Mec-1, 10 nM, day 0
  Rep 1 Live Cells [Fold Change]: 1 Fold Change
  Rep 2 Live Cells [Fold Change]: 1 Fold Change
[1]; Mec-1, 10 nM, day 3
  Rep 1 Live Cells [Fold Change]: 4.77 Fold Change
  Rep 2 Live Cells [Fold Change]: 4.767 Fold Change
[1]; Mec-1, 10 nM, day 6
  Rep 1 Live Cells [Fold Change]: 9.22 Fold Change
  Rep 2 Live Cells [Fold Change]: 11.6783 Fold Change
[1]; Mec-1, 10 nM, day 10
  Rep 1 Live Cells [Fold Change]: 14.1 Fold Change
  Rep 2 Live Cells [Fold Change]: 14.8315 Fold Change
[1]; Mec-1, 10 nM, day 12
  Rep 1 Live Cells [Fold Change]: 6.51 Fold Change
  Rep 2 Live Cells [Fold Change]: 21.021 Fold Change
[1]; Mec-1, 100 nM, day 0
  Rep 1 Live Cells [Fold Change]: 1 Fold Change
  Rep 2 Live Cells [Fold Change]: 1 Fold Change
[1]; Mec-1, 100 nM, day 3
  Rep 1 Live Cells [Fold Change]: 4.7 Fold Change
  Rep 2 Live Cells [Fold Change]: 5.133 Fold Change
[1]; Mec-1, 100 nM, day 6
  Rep 1 Live Cells [Fold Change]: 7 Fold Change
  Rep 2 Live Cells [Fold Change]: 6.365 Fold Change
[1]; Mec-1, 100 nM, day 10
  Rep 1 Live Cells [Fold Change]: 3.48 Fold Change
  Rep 2 Live Cells [Fold Change]: 6.047 Fold Change
[1]; Mec-1, 100 nM, day 12
  Rep 1 Live Cells [Fold Change]: 1.18 Fold Change
  Rep 2 Live Cells [Fold Change]: 4.755 Fold Change
[1]; Mec-1, 1 µM, day 0
  Rep 1 Live Cells [Fold Change]: 1 Fold Change
  Rep 2 Live Cells [Fold Change]: 1 Fold Change
[1]; Mec-1, 1 µM, day 3
  Rep 1 Live Cells [Fold Change]: 3.93 Fold Change
  Rep 2 Live Cells [Fold Change]: 5.933 Fold Change
[1]; Mec-1, 1 µM, day 6
  Rep 1 Live Cells [Fold Change]: 5.81 Fold Change
  Rep 2 Live Cells [Fold Change]: 5.993 Fold Change
[1]; Mec-1, 1 µM, day 10
  Rep 1 Live Cells [Fold Change]: 3.37 Fold Change
  Rep 2 Live Cells [Fold Change]: 5.304 Fold Change
[1]; Mec-1, 1 µM, day 12
  Rep 1 Live Cells [Fold Change]: 1.63 Fold Change
  Rep 2 Live Cells [Fold Change]: 3.878 Fold Change
[1]; high doses (1µM)
  anti-proliferative potency compared to PRT382: similar
[1]; lower doses (10nM, 100nM)
  anti-proliferative potency compared to PRT382: more potent
[2]; HG3, 1 nM, day 0
  Rep 1 Live Cells [Fold Change]: 1 Fold Change
  Rep 2 Live Cells [Fold Change]: 1 Fold Change
[2]; HG3, 1 nM, day 3
  Rep 1 Live Cells [Fold Change]: 3.4 Fold Change
  Rep 2 Live Cells [Fold Change]: 6.6 Fold Change
[2]; HG3, 1 nM, day 6
  Rep 1 Live Cells [Fold Change]: 16.32 Fold Change
  Rep 2 Live Cells [Fold Change]: 45.98 Fold Change
[2]; HG3, 1 nM, day 10
  Rep 1 Live Cells [Fold Change]: 137.904 Fold Change
  Rep 2 Live Cells [Fold Change]: 282.777 Fold Change
[2]; HG3, 1 nM, day 12
  Rep 1 Live Cells [Fold Change]: 482.664 Fold Change
  Rep 2 Live Cells [Fold Change]: 1404.46 Fold Change
[2]; HG3, 10 nM, day 0
  Rep 1 Live Cells [Fold Change]: 1 Fold Change
  Rep 2 Live Cells [Fold Change]: 1 Fold Change
[2]; HG3, 10 nM, day 3
  Rep 1 Live Cells [Fold Change]: 3.27 Fold Change
  Rep 2 Live Cells [Fold Change]: 4.767 Fold Change
[2]; HG3, 10 nM, day 6
  Rep 1 Live Cells [Fold Change]: 11.445 Fold Change
  Rep 2 Live Cells [Fold Change]: 11.6783 Fold Change
[2]; HG3, 10 nM, day 10
  Rep 1 Live Cells [Fold Change]: 19.7426 Fold Change
  Rep 2 Live Cells [Fold Change]: 14.8315 Fold Change
[2]; HG3, 10 nM, day 12
  Rep 1 Live Cells [Fold Change]: 31.5074 Fold Change
  Rep 2 Live Cells [Fold Change]: 21.021 Fold Change
[2]; HG3, 100 nM, day 0
  Rep 1 Live Cells [Fold Change]: 1 Fold Change
  Rep 2 Live Cells [Fold Change]: 1 Fold Change
[2]; HG3, 100 nM, day 3
  Rep 1 Live Cells [Fold Change]: 3.157 Fold Change
  Rep 2 Live Cells [Fold Change]: 5.133 Fold Change
[2]; HG3, 100 nM, day 6
  Rep 1 Live Cells [Fold Change]: 5.956 Fold Change
  Rep 2 Live Cells [Fold Change]: 6.365 Fold Change
[2]; HG3, 100 nM, day 10
  Rep 1 Live Cells [Fold Change]: 4.824 Fold Change
  Rep 2 Live Cells [Fold Change]: 6.047 Fold Change
[2]; HG3, 100 nM, day 12
  Rep 1 Live Cells [Fold Change]: 3.339 Fold Change
  Rep 2 Live Cells [Fold Change]: 4.755 Fold Change
[2]; HG3, 1 µM, day 0
  Rep 1 Live Cells [Fold Change]: 1 Fold Change
  Rep 2 Live Cells [Fold Change]: 1 Fold Change
[2]; HG3, 1 µM, day 3
  Rep 1 Live Cells [Fold Change]: 3.733 Fold Change
  Rep 2 Live Cells [Fold Change]: 5.933 Fold Change
[2]; HG3, 1 µM, day 6
  Rep 1 Live Cells [Fold Change]: 6.21 Fold Change
  Rep 2 Live Cells [Fold Change]: 5.993 Fold Change
[2]; HG3, 1 µM, day 10
  Rep 1 Live Cells [Fold Change]: 3.912 Fold Change
  Rep 2 Live Cells [Fold Change]: 5.304 Fold Change
[2]; HG3, 1 µM, day 12
  Rep 1 Live Cells [Fold Change]: 2.641 Fold Change
  Rep 2 Live Cells [Fold Change]: 3.878 Fold Change
[2]; high doses (1µM)
  anti-proliferative potency compared to PRT382: similar
[2]; lower doses (10nM, 100nM)
  anti-proliferative potency compared to PRT382: more potent
